Laboratory results taken from patent US20050120398A1, “Animal model for HCV infection” (Vertex Pharmaceuticals Incorporated, priority 2003, published 2005).
Entries after “also recorded” stand apart in the source; their conditions may differ.

Experiments:
Wild type HCV protease = assay: Steatosis associated with HCV protease expression, Oil Red O staining of liver sections; type: in vivo, SCID mice; settings: 300 mg/kg BID oral for the initial 3 days; 10^11 IFU/mouse; sacrificed at 7 days
Description: FIG. 25 depicts that steatosis associated with HCV protease expression can be ameliorated by HCV protease inhibitor VX-950. SCID mice were injected with 10^11 IFU/mouse of replication defective adenovirus expressing Wild type HCV protease or mutant HCV protease or SEAP alone (n=6). One group of mice (n=6) injected with adenovirus expressing wild type HCV protease were treated with 300 mg/kg BID via oral route for the initial 3 days. All the mice were sacrificed at 7 days and liver sections were stained with Oil Red O. A significant accumulation of fat in the livers of mice expressing wild type HCV protease compared to either mutant HCV protease or SEAP alone groups (20× magnification).
1. Cryostat frozen sections of livers stored at −80° C. were tested.
2. The Oil Red O Solution was prepared as follows:
a) Stock Solution Oil Red O: 500 mg Oil red O stain (Sigma O-0625) was dissolved in 100 ml isopropanol at room temperature overnight with stirring. The solution was filtered through a #1 Whatman filter. The solution was stored at room temperature protected from light.
b) Working Oil Red Solution was prepared fresh the day of assay. 40% water was mixed with 60% Oil Red O stock by inversion.
c) The working solution was kept at room temperature for 1 hour before filtering. Particulate material was filtered out using a #1 Whatman filter paper.
3. […]
13. The results were assessed by microscopy.

Ad.WT.HCVpro = assay: Liver injury in mice infected with adenovirus expressing WT HCV protease; settings: 300 mg/kg orally twice a day for the first three days; 10^11 IFU/mice; sacrificed after 7 days
[1] = system: Ad.MT.HCVpro (mutant HCV protease fused with SEAP); assay: HCV protease mouse model: SEAP in serum, mutant HCV protease adenovirus; type: in vivo, SCID mice; settings: 300 mg/kg orally twice a day; 10^9.5 IFU/mice Ad.MT.HCVpro; serum 24 hours post-infection

CCC[C@H](NC(=O)[C@@H]1[C@H]2CCC[C@H]2CN1C(=O)[C@@H](NC(=O)[C@@H](NC(=O)c1cnccn1)C1CCCCC1)C(C)(C)C)C(=O)C(=O)NC1CC1 [VX-950]
amelioration of steatosis (Oil Red O staining) (Wild type HCV protease): effective at ameliorating steatosis; also recorded: ameliorated
protection from liver injury (gross appearance and H&E liver pathology) (Ad.WT.HCVpro): protects mice from Liver injury
effect on Mutant HCV protease activity (SEAP in serum) [1]: No effect
